EP0022621A1, “Peptides related to somatostatin, their preparation and pharmaceutical compositions containing them” (ELI LILLY AND COMPANY, priority 1979, dated 1981)
Several values for one entry are separate records, joined by “and”; a condition that tells them apart may be missing. Identical values can stand only once. Positions of bridges follow the written chain, without caps; N, C: chain ends. No end group written: not given here.

What was measured:
insulin = assay: Insulin and Glucagon Inhibition In Dogs (L-alanine stimulation, serum insulin by radioimmunoassay); assay type: in vivo, dog; conditions: for Result: inhibition of insulin: fasted dog, L-alanine infusion; for inhibition of secretion of insulin: dog stimulated with L-alanine, dose not stated
Procedure: (§1) B. Insulin and Glucagon Inhibition In Dogs:
(§2) A normal dog is fasted overnight. An intravenous (I.V.) infusion of the test compound (dissolved in saline) is begun. Thirty minutes thereafter an additional infusion of L-alanine (dissolved in saline) is begun and is continued for a total of 15 minutes so that a total dose of about 1 mmole of L-alanine per kg. body weight is given. Infusion of the test compound is continued for an additional 15 minute period.
(§3) Blood samples are taken periodically before (at -20, -10 and -1 minutes) and after (5, 10, 15, 30, 35, 40, 45, 50, 60, 90, 120 and 150 minutes) the start of the infusion of the test compound. The serum insulin and serum glucagon concentrations in the blood are determined by radioimmunoassay. A plot is made of the glucagon and insulin concentrations versus time. The plot obtained from the test compound is compared to plots obtained from somatostatin and saline (controls) in similar experiments.
(§4) Infusion of L-alanine (in the absence of somatostatin or active test compound) causes an abrupt increase in serum insulin and glucagon concentrations. The concentrations return to basal levels after the L-alanine infusion is terminated. Infusion of somatostatin (alone) causes a decrease in basal serum concentrations of insulin and glucagon.

glucagon = assay: Insulin and Glucagon Inhibition In Dogs (L-alanine stimulation, serum glucagon by radioimmunoassay); assay type: in vivo, dog; conditions: for Result: inhibition of glucagon: fasted dog, L-alanine infusion; for inhibition of secretion of glucagon: dog stimulated with L-alanine, dose not stated
Procedure: as §1, §2, §3, §4

[1] = test system: growth hormone (GH) secretion; assay: Growth Hormone Inhibition In Rats (pentobarbital-stimulated GH secretion, serum GH by radioimmunoassay); assay type: in vivo; conditions: for GH Serum Conc.: male rats, sodium pentobarbital 4 mg/rat I.P., 20 minutes, Mean ± SEM; for % Inhibition: inhibition of GH release compared to saline controls
Procedure: A. Growth Hormone Inhibition In Rats:
This test is a modification of the method of P. Brazeau et al. Endocrinology, 94, 184 (1974). Male rats (weighing 100-110 g.) are divided into three groups of eight rats each. Each rat is administered sodium pentobarbital at a dose of 4 mg/rat (I.P.) to stimulate growth hormone (GH) secretion. Simultaneously, one group of rats receives the test compound (S.C.); the second group receives somatostatin (S.C.); and the third group (control) receives saline (S.C.). Twenty- minutes later, the animals are decapitated and blood samples are collected. The serum concentration of growth hormone (GH) is determined by'radioimmunoassay. The mean GH concentration (+ standard error of the mean) is calculated for each group. The percent inhibition of GH release (as compared to saline controls) is then calculated for the test compound and for somatostatin. When tested as above-described, the peptides of Examples 2, 4, 6, 8 and 10, representative of the peptides of Formula III, gave the results set forth below in Table I: […]

[2] = I.V. infusion dose 0.05 µg/kg/min
[3] = I.V. infusion dose 0.098, 0.181, 0.291 µg/kg/min
[4] = I.V. infusion dose 0.06 µg/kg/min
[5] = I.V. infusion dose 0.20 µg/kg/min
[6] = infusion alone, without L-alanine, dog

Substance | Result: inhibition of insulin (insulin; [2]) | inhibition of secretion of insulin (insulin) | Result: inhibition of glucagon (glucagon; [2]) | inhibition of secretion of glucagon (glucagon) | GH Serum Conc. ([1]; dose 2 µg/kg S.C.) [ng/mL] | GH Serum Conc. ([1]; dose 50 µg/kg S.C.) [ng/mL] | % Inhibition ([1]; dose 2 µg/kg S.C.) [%] | % Inhibition ([1]; dose 50 µg/kg S.C.) | further results
D-Alanyl-glycyl-L-cysteinyl-L-lysyl-D-alanyl-L-phenylalanyl-L-phenylalanyl-D-tryptophyl-L-lysyl-L-threonyl-L-cyclohexylalanyl-L-threonyl-L-seryl-D-cysteine cyclic (3 -> 14) disulfide [Example 4] | No inhibition of glucagon and insulin | did not inhibit | No inhibition of glucagon and insulin | did not inhibit | 5.5 ± 0.7 | 8.4 ± 3.4 | 95 | 92% | 
D-Alanyl-glycyl-L-cysteinyl-L-lysyl-D-alanyl-L-phenylalanyl-L-phenylalanyl-D-tryptophyl-L-lysyl-L-threonyl-L-phenylalanyl-L-threonyl-L-seryl-D-cysteine cyclic (3 -> 14) disulfide [Example 2] |  | did not inhibit |  | did not inhibit | 7.1 ± 3.8 | 2.0 ± 0.3 | 94.9 | 98.6% | Result: inhibition of insulin (insulin; [3]): No inhibition of glucagon and insulin; Result: inhibition of glucagon (glucagon; [3]): No inhibition of glucagon and insulin; GH Serum Conc. ([1]; dose 0.25 µg/kg S.C.): 51.0 ± 14.1 ng/mL; GH Serum Conc. ([1]; dose 1 µg/kg S.C.): 30.6 ± 16.0 ng/mL; GH Serum Conc. ([1]; dose 2.5 µg/kg S.C.): 14.8 ± 10.9 ng/mL; GH Serum Conc. ([1]; dose 25 µg/kg S.C.): 2.8 ± 0.2 ng/mL; % Inhibition ([1]; dose 0.25 µg/kg S.C.): 37.4%; % Inhibition ([1]; dose 1 µg/kg S.C.): 79.8%; % Inhibition ([1]; dose 2.5 µg/kg S.C.): 81.8%; % Inhibition ([1]; dose 25 µg/kg S.C.): 98.2%
D-Seryl-glycyl-L-cysteinyl-L-lysyl-L-alanyl-L- phenylalanyl-L-phenylalanyl-D-tryptophyl-L-lysyl-L-threonyl-L-cyclohexylalanyl-L-threonyl-L-seryl-D- cysteine cyclic (3 -> 14) disulfide [Example 10] |  |  |  |  | 68.8 ± 28.2 | 2.2 ± 0.1 | 34 | 98% | Result: inhibition of insulin (insulin; [4]): Partial inhibition of glucagon and insulatum.; Result: inhibition of glucagon (glucagon; [4]): Partial inhibition of glucagon and insulatum.
D-Seryl-glycyl-L-cysteinyl-L-lysyl-L-alanyl-L-phenylalanyl-L-phenylalanyl-D-tryptophyl-L-lysyl-L-threonyl-D-phenylalanyl-L-threonyl-L-seryl-D-cysteine cyclic (3 -> 14) 4isulfide [Example 8] |  | did not inhibit |  | did not inhibit | 79.6 ± 36.2 | 40.0 ± 13.4 | 0 | 39% | Result: inhibition of insulin (insulin; [5]): No inhibition of glucagon and insulin; Result: inhibition of glucagon (glucagon; [5]): No inhibition of glucagon and insulin
D-Seryl-glycyl-L-cysteinyl-L-lysyl-L-alanyl-L-phenylalanyl-L-phenylalanyl-D-tryptophyl-L-lysyl-L-threonyl-L-phenylalanyl-L-threonyl-L-seryl-D-cysteine cyclic (3 -> 14) disulfide [Example 6] | Significant inhibition of glucagon and insulin |  | Significant inhibition of glucagon and insulin |  | 15.5 ± 5.4 | 4.0 ± 0.5 | 79 | 95% | 
Somatostatin (AGCKNFFWKTFTSC; disulfide 3-14 (inferred); ends not checked; UniProt P61278 103-116, looked up) [reference compound] |  | inhibits the increase |  | inhibits the increase |  |  |  | 86.7% and 52.5% and 57.9% and 91% and 93% and 64% and 98% | basal serum concentration of insulin (insulin; [6]): decrease; basal serum concentration of glucagon (glucagon; [6]): decrease
